Test results published in publication PMC9098912, “Molecular basis for inhibiting human glucose transporters by exofacial inhibitors” (Nature Communications, 2022).
“And” between values parts separate entries of the source, which are not always exact repeats. Equal entries are not always repeated. “Also recorded” adds a separate entry of the source.

Columns and labels:
[1] = target: T1, human glucose transporter GLUT1(N45T) (Homo sapiens, UniProt P11166, N45T); conditions: 50 mM maltose, cited from earlier work
T1 construct: made in house
T1 sequence (P11166 1-492 N45T): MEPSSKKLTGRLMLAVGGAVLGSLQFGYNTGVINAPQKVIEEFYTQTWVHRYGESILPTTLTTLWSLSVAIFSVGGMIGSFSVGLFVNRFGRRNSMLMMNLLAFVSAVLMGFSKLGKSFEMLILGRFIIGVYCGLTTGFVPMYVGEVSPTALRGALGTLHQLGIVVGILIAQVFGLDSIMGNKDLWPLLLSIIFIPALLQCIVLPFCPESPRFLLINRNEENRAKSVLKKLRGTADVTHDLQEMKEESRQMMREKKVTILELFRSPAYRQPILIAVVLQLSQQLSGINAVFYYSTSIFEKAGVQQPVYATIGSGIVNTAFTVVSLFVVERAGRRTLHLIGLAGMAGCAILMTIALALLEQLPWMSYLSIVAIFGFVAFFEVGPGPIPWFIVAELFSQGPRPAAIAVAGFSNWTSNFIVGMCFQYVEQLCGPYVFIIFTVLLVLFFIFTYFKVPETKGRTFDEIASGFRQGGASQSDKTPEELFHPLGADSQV

human GLUT3(N43T) [2] = target: T2, human GLUT3(N43T) (Homo sapiens, UniProt P11169, N43T); conditions: 50 mM maltose, cited from earlier work
T2 construct: His10 (N); made in house; host or cells: Sf9 insect cells (baculovirus)
T2 sequence (P11169 1-496 N43T): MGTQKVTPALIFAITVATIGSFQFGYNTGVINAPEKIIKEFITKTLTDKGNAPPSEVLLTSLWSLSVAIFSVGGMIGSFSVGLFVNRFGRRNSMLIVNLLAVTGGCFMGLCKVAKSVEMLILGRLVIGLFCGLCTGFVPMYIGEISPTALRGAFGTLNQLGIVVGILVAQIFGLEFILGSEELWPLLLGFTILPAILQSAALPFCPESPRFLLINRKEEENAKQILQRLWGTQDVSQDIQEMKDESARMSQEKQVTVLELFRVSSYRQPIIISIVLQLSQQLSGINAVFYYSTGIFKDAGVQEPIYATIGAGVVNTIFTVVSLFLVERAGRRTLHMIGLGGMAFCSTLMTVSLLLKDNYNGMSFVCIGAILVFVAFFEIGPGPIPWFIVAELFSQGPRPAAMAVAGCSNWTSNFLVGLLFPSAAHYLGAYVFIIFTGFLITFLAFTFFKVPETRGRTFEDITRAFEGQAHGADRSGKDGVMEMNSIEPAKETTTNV

[3] = target: T1, human glucose transporter GLUT1(N45T); assay: Proteoliposome-based counterflow assay, inhibition of D-[2-3H]-glucose transport; format: biochemical; conditions: 100 μM inhibitor; for Figure S1c: transport activity in presence of inhibitor (value1-3) / Inhibition of glucose uptake: GLUT1; for Figure S1c: transport activity in presence of inhibitor (value1-3): 100 µM
Experimental: (§1) All mutants were generated by standard PCR-based strategy.
(§2) All counterflow assays were performed at 25 °C. […] Liposome without protein was used as negative control.
(§3) All experiments were repeated at least three times.

WT GLUT3 = target: T3, WT GLUT3 (Homo sapiens, UniProt P11169, N43T); assay: Microscale thermophoresis (MST) binding assay; design: Figure 1e middle: MST binding curve, Mean / Figure 1e right: MST binding curve, Mean / Figure 2c: MST binding curve, Mean: unit not given here; conditions: GLUT3, log [CCB]
T3 construct: His10 (N); made in house; host or cells: Sf9 insect cells (baculovirus)
T3 sequence (P11169 1-496 N43T): T2 sequence (P11169 1-496 N43T)
Experimental: as §1
(§4) Inhibitors with serial dilutions were mixed with indicated protein. […] MST analyses were conducted on a Monolith NT. […] The MST data was analyzed by Monolith NT.115.

[4] = target: T4, GLUT3exo (GLUT3 S64W and I305W) (Homo sapiens, UniProt P11169, I305W/N43T/S64W); assay: biochemical; format: binding; conditions: GLUT3 dTrp mutant, log [CCB]
T4 construct: His10 (N); made in house; host or cells: Sf9 insect cells (baculovirus)
Experimental: Following the same principle for the engineering of XylE-WW, we introduced two Trp substitutions, S64W and I305W, on the extracellular segments of TM2 and TM8 of GLUT3, respectively. This variant will be referred to as GLUT3exo hereafter (Fig. 1a). The two bulky substituents were expected to trap GLUT3 in an outward-facing conformation.
as §1, §4

human GLUT3(N43T) [5] = target: T2, human GLUT3(N43T); assay: Proteoliposome-based counterflow assay, inhibition of D-[2-3H]-glucose transport; format: biochemical; conditions: 100 μM inhibitor; for Figure S1d: transport activity in presence of inhibitor (value1-3): three independent experiments, 100 µM
Experimental: as §1, §2, §3

[6] = target: E. coli (strain O157:H7) D-xylose:proton symporter XylE (Escherichia coli O157:H7, UniProt P0AGF5); conditions: for Figure S1b: transport activity in presence of inhibitor (value1-3): 100 µM
Experimental: The recombinant human glucose transporter GLUT1(N45T) and E. coli (strain O157:H7) D-xylose:proton symporter XylE were expressed and purified as described previously[17],[26]. […] In brief, the cDNA of human GLUT3 was cloned into a modified pFastBac vector (Invitrogen) fused with an N-terminal His10 tag. All mutants were generated by standard PCR-based strategy.
E. coli polar lipids (Avanti) were dissolved, dried, and resuspended to a final concentration of 20 mg/ml with the KPM 6.5 buffer (50 mM potassium phosphate, 2 mM MgSO4; pH 6.5) supplemented with 50 mM D-glucose or xylose (Sigma). After freeze-and-thaw with liquid nitrogen, the liposomes were extruded through 0.4 μm polycarbonate membranes (Millipore) and incubated with 1% n-octyl-β-d-glucoside (β-OG; Anatrace) at 4 °C for 30 min. Purified protein was incubated with liposomes at a ratio of ~1:100 (w/w) for 60 min. Then β-OG was removed by incubating with Bio-Beads SM2 (Bio-Rad) overnight. The proteoliposomes were subject to freeze-and-thaw again and extruded through 0.4 μm polycarbonate membranes. The homogenized proteoliposomes were ultracentrifuged at 100,000 g at 4 °C for 1 h and rinsed twice with the ice cold KPM 6.5 buffer. Finally, the proteoliposomes were resuspended in the KPM 6.5 buffer to a final concentration of 100 mg/ml (phospholipids).
All counterflow assays were performed at 25 °C. For each assay, an aliquot of 2 μl proteoliposomes was added into 98 μl KPM 6.5 buffer plus 1 μCi D-[2-^3H] glucose (specific radioactivity 23.4 Ci/mmol, PerkinElmer) or D-[^3H] xylose (20 Ci/mmol, American Radiolabeled Chemicals, Inc.). The final concentrations of the external D-[2-^3H] glucose and D-[^3H] xylose were 0.42 μM and 0.5 μM, respectively. Uptake of radio-labeled substrates was terminated at 30 s by rapidly filtering the solution through 0.22 μm GSTF filters (Millipore) and washed with 2.5 ml KPM 6.5 buffer. The filter was solubilized with 0.5 ml Optiphase HISAFE 3 (PerkinElmer) for 30 min for liquid scintillation counting with MicroBeta JET (PerkinElmer). Liposome without protein was used as negative control.
For inhibition assays, an aliquot of 2 μL proteoliposome pre-incubated with 100 μM indicated inhibitors for 0.5 h on ice was added to 98 μL KPM buffer containing 1 μCi D-[2-^3H]-glucose or D-[^3H] xylose with 100 μM inhibitors. To determine the IC50 of the inhibitor, a series of concentrations of the inhibitor was applied as indicated.
All experiments were repeated at least three times. Data for liposome-based counterflow assay were analyzed using GraphPad Prism 6.

T4 sequence (P11169 whole entry N43T/S64W/I305W): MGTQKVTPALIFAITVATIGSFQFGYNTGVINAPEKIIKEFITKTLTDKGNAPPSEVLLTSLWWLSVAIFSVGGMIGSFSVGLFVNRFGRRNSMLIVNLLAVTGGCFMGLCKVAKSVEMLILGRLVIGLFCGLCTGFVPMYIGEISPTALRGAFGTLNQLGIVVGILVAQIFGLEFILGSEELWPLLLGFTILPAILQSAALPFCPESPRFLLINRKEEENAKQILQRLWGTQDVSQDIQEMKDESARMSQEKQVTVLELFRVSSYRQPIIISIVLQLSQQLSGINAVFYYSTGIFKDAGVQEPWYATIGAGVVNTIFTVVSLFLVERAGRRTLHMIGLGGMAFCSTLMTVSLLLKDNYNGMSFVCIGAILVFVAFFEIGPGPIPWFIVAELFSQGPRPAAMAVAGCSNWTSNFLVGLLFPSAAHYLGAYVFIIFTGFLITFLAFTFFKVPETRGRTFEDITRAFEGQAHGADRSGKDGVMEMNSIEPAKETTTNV
Sequence of E. coli (strain O157:H7) D-xylose:proton symporter XylE (P0AGF5 whole entry, the tested form may be a part): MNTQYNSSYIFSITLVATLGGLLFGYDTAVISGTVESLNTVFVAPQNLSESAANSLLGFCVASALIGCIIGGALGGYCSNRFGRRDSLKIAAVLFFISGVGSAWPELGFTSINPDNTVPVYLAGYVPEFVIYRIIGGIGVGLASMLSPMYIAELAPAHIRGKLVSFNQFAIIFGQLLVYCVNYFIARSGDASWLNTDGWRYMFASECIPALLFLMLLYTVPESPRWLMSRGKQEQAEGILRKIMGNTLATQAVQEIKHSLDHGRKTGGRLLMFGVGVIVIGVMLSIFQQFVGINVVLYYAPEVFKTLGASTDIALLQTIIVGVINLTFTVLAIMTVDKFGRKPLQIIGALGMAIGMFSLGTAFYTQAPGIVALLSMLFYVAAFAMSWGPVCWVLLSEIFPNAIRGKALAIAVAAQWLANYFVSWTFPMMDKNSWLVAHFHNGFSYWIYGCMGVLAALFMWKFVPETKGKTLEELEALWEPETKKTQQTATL

## OC[C@H]1O[C@H](O[C@H]2[C@H](O)[C@@H](O)C(O)O[C@@H]2CO)[C@H](O)[C@@H](O)[C@@H]1O (mixture of isomers) [maltose]
[1]; ref 18 (Deng et al., 2015)
  Inhibition of glucose transport: could not be completely blocked; also recorded: cannot completely inhibit
[1]; ref Deng et al., 2015
  Preserved transport activity: one third
Human GLUT3(N43T) [2]; ref 18 (Deng et al., 2015)
  Inhibition of glucose transport: could not be completely blocked; also recorded: cannot completely inhibit
Human GLUT3(N43T) [2]; ref Deng et al., 2015
  Preserved transport activity: one quarter

## C=C1[C@@H](C)[C@H]2[C@H](Cc3ccccc3)NC(=O)[C@]23OC(=O)/C=C/[C@H](O)CCC[C@@H](C)C/C=C/[C@H]3[C@@H]1O [CCB, cytochalasin B]
[3]; three independent experiments
  Figure S1c: transport activity in presence of inhibitor (value1-3): 7.4821 and 5.9756
[3]; read-out: Figure S1c: transport activity in presence of inhibitor (value1-3), GLUT1, three independent experiments
  activity at 100 µM: 5.88%
WT GLUT3; M -5.20412
  Figure 1e middle: MST binding curve, Mean: 94.2771
WT GLUT3; M -5.50515
  Figure 1e middle: MST binding curve, Mean: 91.6933
WT GLUT3; M -5.80618
  Figure 1e middle: MST binding curve, Mean: 73.4039
WT GLUT3; M -6.10721
  Figure 1e middle: MST binding curve, Mean: 45.8611
WT GLUT3; M -6.40824
  Figure 1e middle: MST binding curve, Mean: 32.1651
WT GLUT3; M -7.0103
  Figure 1e middle: MST binding curve, Mean: 19.0619
WT GLUT3; M -7.31133
  Figure 1e middle: MST binding curve, Mean: 12.7467
WT GLUT3; M -7.61236
  Figure 1e middle: MST binding curve, Mean: 11.0147
WT GLUT3; M -7.91339
  Figure 1e middle: MST binding curve, Mean: 6.7796
WT GLUT3; M -8.51545
  Figure 1e middle: MST binding curve, Mean: 9.6216
WT GLUT3; M -8.81648
  Figure 1e middle: MST binding curve, Mean: 7.333
WT GLUT3; M -9.11751
  Figure 1e middle: MST binding curve, Mean: 0.514
[4]; M -3.69897
  Figure 1e middle: MST binding curve, Mean: 12.3879
[4]; M -4
  Figure 1e middle: MST binding curve, Mean: 6.9876
[4]; M -4.30103
  Figure 1e middle: MST binding curve, Mean: 10.2535
[4]; M -4.60206
  Figure 1e middle: MST binding curve, Mean: 7.6812
[4]; M -4.90309
  Figure 1e middle: MST binding curve, Mean: 5.043
[4]; M -5.20412
  Figure 1e middle: MST binding curve, Mean: 1.714
[4]; M -5.50515
  Figure 1e middle: MST binding curve, Mean: 6.889
[4]; M -5.80618
  Figure 1e middle: MST binding curve, Mean: 3.628
[4]; M -6.10721
  Figure 1e middle: MST binding curve, Mean: 6.7864
[4]; M -6.40824
  Figure 1e middle: MST binding curve, Mean: 7.2964
[4]; M -6.70927
  Figure 1e middle: MST binding curve, Mean: 7.035
[4]; M -7.0103
  Figure 1e middle: MST binding curve, Mean: 6.292
[4]; M -7.31133
  Figure 1e middle: MST binding curve, Mean: 16.166
[4]; M -7.61236
  Figure 1e middle: MST binding curve, Mean: 24.9543
[4]; M -7.91339
  Figure 1e middle: MST binding curve, Mean: 19.4149
[4]; M -8.21442
  Figure 1e middle: MST binding curve, Mean: 19.7489

## COC1OC(CO)C(O)C(O)C1OC(=O)c1cc(Cl)c(OCc2nc3ccccc3n2C(C)C)c(Cl)c1 (stereo not shown) [SA2]
Human GLUT3(N43T) [5]
  Inhibition of glucose uptake: almost completely abolished
  Figure S1d: transport activity in presence of inhibitor (value1-3): 15.2946 and 13.6199 and 13.8419
[3]
  Inhibition of glucose uptake: almost completely abolished
[3]; three independent experiments
  Figure S1c: transport activity in presence of inhibitor (value1-3): 23.4003 and 23.4095 and 22.1495
[6]
  Inhibition of xylose transport: moderately inhibited
  Figure S1b: transport activity in presence of inhibitor (value1-3): 58.0461 and 66.7656 and 51.1774

## C#CCCC(=O)Nc1cccc(COc2c(Cl)cc(C(=O)OC3C(OC)OC(CO)C(O)C3O)cc2OC)c1 (stereo not shown) [SA3]
Human GLUT3(N43T) [5]
  Inhibition of glucose uptake: mildly inhibited
  Figure S1d: transport activity in presence of inhibitor (value1-3): 34.7779 and 38.4924 and 41.7666
[3]
  Inhibition of glucose uptake: mildly inhibited
[3]; three independent experiments
  Figure S1c: transport activity in presence of inhibitor (value1-3): 52.3152 and 50.1788 and 49.4073
[6]
  Figure S1b: transport activity in presence of inhibitor (value1-3): 88.5699 and 92.3449 and 87.2521

## COc1c(Cl)c(OCc2ccccc2)c(Cl)c(C)c1C(=O)OC1C(OC)OC(CO)C(O)C1O (stereo not shown) [SA4]
Human GLUT3(N43T) [5]
  Inhibition of glucose uptake: almost completely abolished
  Figure S1d: transport activity in presence of inhibitor (value1-3): 6.3677 and 8.1365 and 7.922
[3]
  Inhibition of glucose uptake: almost completely abolished
[3]; three independent experiments
  Figure S1c: transport activity in presence of inhibitor (value1-3): 12.2388 and 8.7146 and 10.3352
[6]
  Figure S1b: transport activity in presence of inhibitor (value1-3): 106.928 and 95.1823 and 98.9097

## CCOC(=O)c1c(C)c(Cl)c(OC(=O)c2c(C)c(Cl)c(O)c(Cl)c2OC)c(Cl)c1OC [SA5]
Human GLUT3(N43T) [5]
  Figure S1d: transport activity in presence of inhibitor (value1-3): 105.451 and 87.0011 and 100.662
[3]; three independent experiments
  Figure S1c: transport activity in presence of inhibitor (value1-3): 101.106 and 93.647 and 95.1991
[6]
  Figure S1b: transport activity in presence of inhibitor (value1-3): 86.3087 and 90.0117 and 94.9979

## COc1ccccc1N1CCN(c2ncnc3c2cnn3-c2cccc(CN)c2)CC1 [SA6]
Human GLUT3(N43T) [5]
  Inhibition of glucose uptake: almost completely abolished
  Figure S1d: transport activity in presence of inhibitor (value1-3): 8.1554 and 7.7188 and 4.7344
[3]
  Inhibition of glucose uptake: almost completely abolished
[3]; three independent experiments
  Figure S1c: transport activity in presence of inhibitor (value1-3): 5.6059 and 7.7469 and 6.8521
[6]
  Figure S1b: transport activity in presence of inhibitor (value1-3): 95.2845 and 101.756 and 111.538
